US7223533B2, “Cell surface proteins and use thereof as indicators of activation of cellular signal transduction pathways” (priority 1999, dated 2007)

Tests used:
[1] = target: T1, human melatonin 1a receptor (ML1aR) (Homo sapiens, UniProt P48039); assay: ELISA of DTT-extracted cell surface Aga2-HA induction (HA.11 antibody, HRP readout); assay type: cell-based; conditions: for HRP activity: yeast cells, Aga2-HA
T1 construct: expressed in transfected cells; host or cells: S. cerevisiae (CY17353 in A11/A12; aga1 mutant CY19890 in A13), plasmid Cp2695 (PGKp-ML1aR)
Experimental: (§1) The cells (TOD600=1.5) were pelleted, washed with ice-cold 0.15 M sodium chloride, resuspended in 50 microliters of 25 mM Tris-HCl, pH 8.5, supplemented with 10 mM dithiothreitol (DTI) and incubated for1 hour at 4° C. This DTT incubation step reduced the disulfide bonds between the Aga1 and Aga2 proteins, thereby releasing Aga2 into the extracellular medium. After centrifugation, 50 microliter aliquots of the supernatants were subjected to Western blot analysis. Immunoreactive bands corresponding to Aga2-HA were visualized using HA.11 antibodies (BAbCo) as primary antibodies, sheep anti-mouse IgG conjugated with horseradish peroxidase (Amarsham Pharmacia Biotech) as secondary antibodies, and peroxidase substrate (e.g., tetramethyl benzidine (Pierce)) for a visual readout.
(§2) Western blot analysis is a qualitative, rather than quantitative methodology. To determine the induction of expression of the Aga2 protein quantitatively, an ELISA strategy was utilized. Cells were cultured, treated, and the Aga2 protein extracted from the cell surface by DTT incubation, as above. Aliquots of these DTT extracts (50 microliters in the case of cells utilizing the Ste2 receptor and 5 microliters in other cases) were diluted to 100 microliters with 100 mM sodium bicarbonate, pH 9.5. Samples were incubated in 96-well polystyrene plates at 4 degrees C overnight. Plates were washed three times with PBS, pH 7.2 supplemented with 0.1% Tween 20 and blocked with the same buffer containing 3% bovine serum albumin at 37° C. for 1 hr. After blocking, the plates were incubated subsequently with 5000-fold diluted HA.11 antibodies (BAbCo) and 5000-fold diluted sheep anti-mouse IgG conjugated with horseradish peroxidase (Amersham Pharmacia Biotech). Each incubation was conducted at room temperature for 1 hr and was followed by three washes with PBS, pH 7.2, 0.1% Tween 20. The peroxidase activities in each well were determined using tetramethyl benzidine as a substrate.

[2] = target: T2, human melatonin 1a receptor (Homo sapiens, UniProt P48039); assay: Western blot of DTT-extracted Aga2-HA; assay type: cell-based; conditions: increasing concentrations of ligand vs absence
T2 construct: expressed in transfected cells; host or cells: S. cerevisiae (CY17353 in A11/A12; aga1 mutant CY19890 in A13), plasmid Cp2695 (PGKp-ML1aR)
Experimental: as §1

ML1a receptor = target: T3, ML1a receptor (Homo sapiens, UniProt P48039); assay: ELISA-like assay of endogenous Aga2 protein with Sag1p21-352; assay type: cell-based; conditions: yeast cells containing the ML1a receptor, peroxidase assay
T3 construct: expressed in transfected cells; host or cells: S. cerevisiae (CY17353 in A11/A12; aga1 mutant CY19890 in A13), plasmid Cp2695 (PGKp-ML1aR)
Experimental: (§3) Extraction of the endogenous Aga2 protein was effected with DTT, as before. Aliquots (25 microliters) of extracts were diluted with 75 microliters of 100 mM sodium bicarbonate, pH 9.5 and the resulting samples were incubated in 96-well polystyrene plates at 4° C. overnight.
(§4) After washing the plates three times with PBS, pH 6.5, supplemented with 0.1% Tween 20, samples were blocked with the same buffer containing 3% bovine serum albumin at 37° C. for 1 hour. After blocking, the plates were incubated subsequently with EndoH-treated Sag1p^21-352 solution (0.5 mg/ml), 1000-fold diluted anti-Xpress antibodies (Invitrogen) and 5000-fold diluted sheep anti-mouse IgG conjugated with horseradish peroxidase (Amersham Pharmacia Biotech). Both Sag1p^21-352 and antibodies were dissolved in PBS, pH 6.5 supplemented with 3% BSA. Each incubation was conducted at room temperature for 1 hr and was followed by three washes with PBS, pH 6.5, 0.1% Tween 20. Finally, the peroxidase activities in each well were determined using tetramethyl benzidine as a substrate. If the Aga2 protein were present in the plate, the Sag1p^21-352 should bind to it, the anti-Xpress antibody binds to the Sag1p^21-352 fusion protein, and the sheep anti-mouse IgG antibodies bind specifically to the anti-Xpress antibody.

ML1aR = target: T4, ML1aR (Homo sapiens, UniProt P48039); assay: Scintillation proximity assay of secreted HA-tagged Aga2p (aga1 mutant strain CY19890); assay type: cell-based; conditions: 1 μM melatonin
T4 construct: expressed in transfected cells; host or cells: S. cerevisiae (CY17353 in A11/A12; aga1 mutant CY19890 in A13), plasmid Cp2695 (PGKp-ML1aR)
Experimental: A particular embodiment of these types of cell-free Aga2 assays is the scintillation proximity assay. In this technique, the extracellular medium potentially containing the Aga2 protein is incubated with antibodies specific for Aga2. These antibodies are also biotinylated, and thus the antibody-Aga2 complex can be tethered to the surface of SPA beads coated with streptavidin (and also containing scintillant). Sag1p^21-352 is radiolabeled with, e.g., ^125I or ^3H, and is incubated with the Aga2-loaded beads. Binding of the fusion protein to the immobilized Aga2 protein brings the radiolabel in proximity to the scintillant contained within the beads, resulting in the emission of light. This emission can be readily quantitated using a scintillation counter. The presence of light indicates the presence of the Aga2 protein, and thus that the pheromone response pathway was activated in the yeast cells by the test compound via the G protein coupled receptor.
The following experiment was conducted in order to test the utility of the scintillation proximity assay for the detection of Aga2p induction mediated by heterologous receptors in yeast. […] One hundred microliter aliquots of culture media were placed into a 96-well plate and the following solutions were added to each well: 20 μl of 0.5 M sodium phosphate, pH 6.0, 1.5 M sodium chloride, 1% Tween 20, 10% BSA; 0.25 μg of SPA beads (Amersham) coated with biotinylated HA.11 antibodies (BAbCo) in 25 μl of PBS (20 mM sodium phosphate, pH 7.2, 0.15 M sodium chloride) and 25 μl of PBS containing [1^25,]-Sag1p^21-352 (250,000 cpm). SPA beads were prepared as follows. Fifty milligrams of streptavidin-coated yttrium silicate beads were incubated in 2 ml of PBS containing 1% BSA, 0.1% Tween 20 and 0.5 mg biotinylated HA. 11 antibodies for 4 hr at room temperature. The beads were washed three times with PBS and resuspended in 1 ml of the same buffer. Sag1p^21-352 was iodinated according to standard protocols using lactoperoxidase.
Light emission was quantitated using a scintillation counter after incubation of the plate at room temperature for 1 hr, 2 hr and 6 hr.

Ste2p [3] = target: T5, Ste2p (Saccharomyces cerevisiae, UniProt D6VTK4); assay: ELISA of DTT-extracted cell surface Aga2-HA induction (HA.11 antibody, HRP readout); assay type: cell-based, S. cerevisiae; conditions: for HRP activity: yeast cells, Aga2-HA
T5 construct: Yeast cells coexpressing either the endogenous yeast receptor Ste2p; endogenous in cells; host or cells: S. cerevisiae MATa cells (strain CY1892 in the Sag1p-based ELISA)
T5 sequence (D6VTK4 1-431): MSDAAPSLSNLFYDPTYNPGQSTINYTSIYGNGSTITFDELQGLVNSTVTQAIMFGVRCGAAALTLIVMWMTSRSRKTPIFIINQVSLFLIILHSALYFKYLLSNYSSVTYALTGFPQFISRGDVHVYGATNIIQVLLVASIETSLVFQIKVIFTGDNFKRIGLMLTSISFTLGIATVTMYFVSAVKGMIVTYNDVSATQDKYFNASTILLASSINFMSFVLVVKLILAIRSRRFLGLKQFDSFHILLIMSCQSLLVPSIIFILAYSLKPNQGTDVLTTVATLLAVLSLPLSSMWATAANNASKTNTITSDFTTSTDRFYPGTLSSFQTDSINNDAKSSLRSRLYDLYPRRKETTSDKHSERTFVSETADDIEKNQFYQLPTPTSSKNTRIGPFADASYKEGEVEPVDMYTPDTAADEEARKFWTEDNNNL
Experimental: as §1, §2

Ste2p [4] = target: T5, Ste2p; assay: Western blot of DTT-extracted Aga2-HA; assay type: cell-based, S. cerevisiae; conditions: increasing concentrations of ligand vs absence
Experimental: as §1

Ste2 receptor = target: T6, Ste2 receptor (Saccharomyces cerevisiae, UniProt D6VTK4); assay: ELISA-like assay of endogenous Aga2 protein with Sag1p21-352, anti-Xpress antibodies and HRP conjugate; assay type: cell-based, S. cerevisiae; conditions: yeast cells containing the Ste2 receptor, peroxidase assay
T6 construct: Yeast cells coexpressing either the endogenous yeast receptor Ste2p; endogenous in cells; host or cells: S. cerevisiae MATa cells (strain CY1892 in the Sag1p-based ELISA)
T6 sequence (D6VTK4 1-431): T5 sequence (D6VTK4 1-431)
Experimental: as §3, §4

[5] = test system: intact MATa cells (strain CY1892); assay: Binding of Sag1p21-352 to yeast cell surface (Western blot of SDS extracts); parameters: species or system S. cerevisiae; conditions: cells with or without 100 nM α-factor; 30° C., 30 min
Experimental: To ensure that this truncation of the Sag1 protein retained full binding activity to α-agglutinin, and more specifically, the Aga2 protein, binding assays were performed. […] The cells (TOD600=1) were pelleted and resuspended in 0.15 ml of the same media supplemented with varying concentrations of Sag1p^21-352. After incubation at 30° C. for 30 min, the cells were washed three times with the same media and incubated in the presence of 2% SDS for 5 min to release Sag1p^21-352 bound to the cell surface. The SDS extracts were subjected to Western blot analysis. The immunoreactive bands corresponding to Sag1p^21-352 were visualized using anti-Xpress antibodies (Invitrogen), as above.

T4 sequence (P48039 whole entry): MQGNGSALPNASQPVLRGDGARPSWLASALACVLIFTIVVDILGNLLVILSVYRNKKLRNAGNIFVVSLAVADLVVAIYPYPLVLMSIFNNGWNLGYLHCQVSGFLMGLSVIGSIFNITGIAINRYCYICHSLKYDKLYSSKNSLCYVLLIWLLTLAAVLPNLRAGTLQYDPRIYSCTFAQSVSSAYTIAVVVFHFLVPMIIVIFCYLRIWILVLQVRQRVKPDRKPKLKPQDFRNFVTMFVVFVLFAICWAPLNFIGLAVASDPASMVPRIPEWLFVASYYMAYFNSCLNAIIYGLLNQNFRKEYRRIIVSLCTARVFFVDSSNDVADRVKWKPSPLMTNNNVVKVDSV
T1 sequence (P48039 whole entry): as above
T2 sequence (P48039 whole entry): as above
T3 sequence (P48039 whole entry): as above

Question: COc1ccc2[nH]cc(CCNC(C)=O)c2c1 [melatonin] was tested. Which HRP activity ([1]; [Ligand] 1 × 10^−6 M) did it give?
Answer: 1.112

Question: What about the HRP activity ([1]; [Ligand] 1.13 × 10^−7 M) of the same molecule?
Answer: 0.829

Question: And the HRP activity ([1]; [Ligand] 1.95 × 10^−9 M)?
Answer: 0.278

Question: What about the HRP activity ([1]; [Ligand] 3.13 × 10^−8 M) of the same molecule?
Answer: 0.767

Question: And the HRP activity ([1]; [Ligand] 4.88 × 10^−10 M)?
Answer: 0.154

Question: And the HRP activity ([1]; [Ligand] 5 × 10^−7 M)?
Answer: 1.216

Question: And the HRP activity ([1]; [Ligand] 7.81 × 10^−9 M)?
Answer: 0.427

Question: What about the Induction factor ([1]; cell surface Aga2-HA, ML1aR) of the same molecule?
Answer: 19

Question: What about the “expression level of the Aga2 protein” value [2] of the same molecule?
Answer: substantial increase

Question: And the “induction of the Aga2 protein” value (ML1a receptor)?
Answer: dose-dependent response

Question: What about the “increase in the levels of HA-tagged Aga2p in the culture media” value (ML1aR; scintillation proximity assay) of the same molecule?
Answer: approximately 3 fold

Question: What about the Induction factor (ML1aR; incubation time 1 hr) of the same molecule?
Answer: 2.5

Question: What about the Induction factor (ML1aR; incubation time 2 hr) of the same molecule?
Answer: 2.6

Question: What about the Induction factor (ML1aR; incubation time 6 hr) of the same molecule?
Answer: 3.1

Question: What does the source list for α-factor?
Answer: HRP activity (Ste2p [3]; [Ligand] 1.13 × 10^−7 M): 2.163; HRP activity (Ste2p [3]; [Ligand] 2 × 10^−6 M): 2.332; HRP activity (Ste2p [3]; [Ligand] 3.13 × 10^−8 M): 0.548; HRP activity (Ste2p [3]; [Ligand] 5 × 10^−7 M): 2.498; HRP activity (Ste2p [3]; [Ligand] 7.81 × 10^−9 M): 0.280; Induction factor (Ste2p [3]; cell surface Aga2-HA, Ste2p): 15; expression level of the Aga2 protein (Ste2p [4]): substantial increase; induction of the Aga2 protein (Ste2 receptor): dose-dependent response

B1: Sag1p^21-352: N-terminal portion of Sag1p (α-agglutinin, residues 21–352) bearing a polyhistidine tag, Xpress epitope and enterokinase cleavage site (protein)
chain: NINDITFSNLEITPLTANKQPDQGWTATFDFSIADASSIREGDEFTLSMPHVYRIKLLNSSQTATISLADGTEAFKCYVSQQAAYLYENTTFTCTAQNDLSSYNTIDGSITFSLNFSDGGSSYEYELENAKFFKSGPMLVKLGNQMSDVVNFDPAAFTENVFHSGRSTGYGSFESYHLGMYCPNGYFLGGTEKIDYDSSNNNVDLDCSSVQVYSSNDFNDWWFPQSYNDTNADVTCFGSNLWITLDEKLYDGEMLWVNALQSLPANVNTIDHALEFQYTCLDTIANTTYATQFSTTREFIVYQGRNLGTASAKSSFISTTTTDLTSINTSAY
modifications: left off: small tags and cut ends
Question: How did the “binding to the cell surface of intact MATa cells” value [5] turn out when B1 was run?
Answer: bound to the cell surface of intact MATa cells only after these cells were treated with α-factor
